Measurements published in PubChem BioAssay AID256 (DTP/NCI, 2004).
“And” between values parts separate entries of the source, which are not always exact repeats. Identical values can stand only once. Toxic doses and inconclusive results are not listed. The calls were made as follows: active = survival T/C of 150% or more; inactive = T/C below 125% in these data.

Tested on: CD2F1 mice, L1210 leukemia ip, survival T/C
Test: NCI In Vivo Anticancer Drug Screen. Data for tumor model L1210 Leukemia (intraperitoneal) in CD2F1 (CDF1) mice
Conditions: higher = longer survival
How it was run: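 In this screen, transplantable tumors were grown in mice given either the compound or its vehicle. Results were expressed as the treated measurement relative to the control measurement.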

[1] = endpoint: mean survival time, dose: 50.0 mg/kg/injection, schedule: Q04DX003 (ip), vehicle: saline
[2] = endpoint: mean survival time, dose: 100.0 mg/kg/injection, schedule: Q04DX003 (ip), vehicle: saline
[3] = endpoint: mean survival time, dose: 200.0 mg/kg/injection, schedule: Q04DX003 (ip), vehicle: saline
[4] = endpoint: mean survival time, dose: 100.0 mg/kg/injection, schedule: Q01DX009 (ip), vehicle: saline with Tween-80
[5] = endpoint: mean survival time, dose: 200.0 mg/kg/injection, schedule: Q01DX009 (ip), vehicle: saline with Tween-80
[6] = endpoint: mean survival time, dose: 100.0 mg/kg/injection, schedule: Q04DX002 (ip), vehicle: saline
[7] = endpoint: mean survival time, dose: 200.0 mg/kg/injection, schedule: Q04DX002 (ip), vehicle: saline
[8] = endpoint: mean survival time, dose: 400.0 mg/kg/injection, schedule: Q04DX002 (ip), vehicle: saline
[9] = endpoint: mean survival time, dose: 12.5 mg/kg/injection, schedule: Q01DX009 (ip), vehicle: saline with Tween-80
[10] = endpoint: mean survival time, dose: 25.0 mg/kg/injection, schedule: Q01DX009 (ip), vehicle: saline with Tween-80
[11] = endpoint: mean survival time, dose: 50.0 mg/kg/injection, schedule: Q01DX009 (ip), vehicle: saline with Tween-80
[12] = endpoint: mean survival time, dose: 400.0 mg/kg/injection, schedule: Q01DX009 (ip), vehicle: saline with Tween-80
[13] = endpoint: mean survival time, dose: 50.0 mg/kg/injection, schedule: Q01DX009 (ip), vehicle: Klucel (hydroxypropylcellulose) (HPC)
[14] = endpoint: mean survival time, dose: 100.0 mg/kg/injection, schedule: Q01DX009 (ip), vehicle: Klucel (hydroxypropylcellulose) (HPC)
[15] = endpoint: mean survival time, dose: 12.5 mg/kg/injection, schedule: Q04DX003 (ip), vehicle: saline
[16] = endpoint: mean survival time, dose: 25.0 mg/kg/injection, schedule: Q04DX003 (ip), vehicle: saline
[17] = endpoint: mean survival time, dose: 400.0 mg/kg/injection, schedule: Q04DX003 (ip), vehicle: saline
[18] = endpoint: mean survival time, dose: 100.0 mg/kg/injection, schedule: Q01DX001 (ip), vehicle: saline with Tween-80
[19] = endpoint: mean survival time, dose: 200.0 mg/kg/injection, schedule: Q01DX001 (ip), vehicle: saline with Tween-80
[20] = endpoint: mean survival time, dose: 400.0 mg/kg/injection, schedule: Q01DX001 (ip), vehicle: saline with Tween-80
[21] = endpoint: mean survival time, dose: 100.0 mg/kg/injection, schedule: Q04DX003 (ip), vehicle: saline with Tween-80
[22] = endpoint: mean survival time, dose: 200.0 mg/kg/injection, schedule: Q04DX003 (ip), vehicle: saline with Tween-80
[23] = endpoint: mean survival time, dose: 400.0 mg/kg/injection, schedule: Q04DX003 (ip), vehicle: saline with Tween-80
[24] = endpoint: median survival time, dose: 25.0 mg/kg/injection, schedule: Q01DX009 (ip), vehicle: saline with Tween-80
[25] = endpoint: median survival time, dose: 50.0 mg/kg/injection, schedule: Q01DX009 (ip), vehicle: saline with Tween-80

Measured: T/C

O=P(O)(O)c1ccc(I)cc1
inactive: [1] 94 % of control | [2] 94 % of control | [3] 98 % of control

CC(=O)Nc1ccc(S(=O)(=O)OCCC#N)cc1
inactive: [4] 98 % of control | [5] 91 % of control

CC(=O)NCN(C)N=O
inactive: [6] 91 % of control | [7] 91 % of control | [8] 91 % of control

CC(c1ccccc1)n1ccnc1CO (stereo unspecified)
inactive: [9] 96 % of control | [10] 104 % of control | [11] 96 % of control and 102 % of control | [4] 91 % of control | [5] 98 % of control

O=C1C=C(c2ccccc2)C(O)(c2ccccc2)C1 (stereo unspecified)
inactive: [11] 89 % of control | [4] 104 % of control | [5] 89 % of control

CNCCc1ccc(O)c(O)c1
inactive: endpoint: mean survival time, dose: 300.0 mg/kg/injection, schedule: Q01DX001 (ip), vehicle: saline 100 % of control

O=Cc1ccc(C(=O)O)cc1
inactive: [4] 95 % of control | [5] 98 % of control | [12] 101 % of control

CCCCCCCCCCCC(CCCCCCCCCC)CCCCCCCCCC
inactive: endpoint: mean survival time, dose: 100.0 mg/kg/injection, schedule: Q01DX001 (ip), vehicle: saline sonified 101 % of control | endpoint: mean survival time, dose: 200.0 mg/kg/injection, schedule: Q01DX001 (ip), vehicle: saline sonified 104 % of control | endpoint: mean survival time, dose: 400.0 mg/kg/injection, schedule: Q01DX001 (ip), vehicle: saline sonified 108 % of control

c1cc(OCC2CO2)ccc1OCC1CO1 (stereo unspecified)
inactive: endpoint: mean survival time, dose: 25.0 mg/kg/injection, schedule: Q01DX009 (ip), vehicle: Klucel (hydroxypropylcellulose) (HPC) 110 % of control | [13] 107 % of control | [14] 113 % of control

NC(=O)CC[n+]1ccccc1
inactive: [15] 97 % of control | [16] 97 % of control | [1] 96 % of control

C=CCNC(=O)C[n+]1cccc(C(=O)NC)c1
inactive: [2] 100 % of control | [3] 102 % of control | [17] 102 % of control

O=C(O)C1CC(c2ccccc2)=NN1c1ccccc1 (stereo unspecified)
inactive: endpoint: mean survival time, dose: 12.5 mg/kg/injection, schedule: Q01DX009 (ip), vehicle: water 101 % of control and 103 % of control and 104 % of control | endpoint: mean survival time, dose: 25.0 mg/kg/injection, schedule: Q01DX009 (ip), vehicle: water 96 % of control and 101 % of control and 102 % of control | endpoint: mean survival time, dose: 50.0 mg/kg/injection, schedule: Q01DX009 (ip), vehicle: water 96 % of control and 102 % of control (2×) | endpoint: mean survival time, dose: 100.0 mg/kg/injection, schedule: Q01DX009 (ip), vehicle: water 93 % of control and 102 % of control and 104 % of control | endpoint: mean survival time, dose: 200.0 mg/kg/injection, schedule: Q01DX009 (ip), vehicle: water 102 % of control (2×) and 112 % of control

COC(=O)c1ccc(C)c(NC2=NCCO2)c1
inactive: endpoint: mean survival time, dose: 6.25 mg/kg/injection, schedule: Q01DX009 (ip), vehicle: saline with Tween-80 96 % of control | [9] 97 % of control | [10] 102 % of control | [11] 105 % of control | [18] 97 % of control | [19] 97 % of control | [20] 93 % of control

CCCN(CCC)CCCOC(=O)c1ccc([N+](=O)[O-])cc1
inactive: [2] 97 % of control | [3] 92 % of control | [17] 94 % of control

O=C(O)CCc1cccnc1
inactive: [4] 95 % of control | [5] 104 % of control | [12] 111 % of control

Nc1nc(=O)n(C2OC(CO)C(O)C2O)c(=O)[nH]1 (stereo unspecified)
inactive: endpoint: mean survival time, dose: 3.12 mg/kg/injection, schedule: Q04DX003 (ip), vehicle: saline 108 % of control | endpoint: mean survival time, dose: 6.25 mg/kg/injection, schedule: Q04DX003 (ip), vehicle: saline 97 % of control | [15] 103 % of control | [16] 95 % of control | [1] 92 % of control | [2] 100 % of control | [3] 95 % of control

O=C(/C=N/O)Nc1ccccc1
inactive: [21] 101 % of control | [22] 100 % of control | [23] 95 % of control

[C-]#[N+]CCS(=O)(=O)CC[N+]#[C-]
inactive: [4] 94 % of control | [21] 102 % of control | [5] 94 % of control | [22] 102 % of control | [12] 100 % of control | [23] 89 % of control

CC(C)C(O)(c1ccccc1)C(O)(c1ccccc1)C(C)C (stereo unspecified)
inactive: endpoint: mean survival time, dose: 50.0 mg/kg/injection, schedule: Q04DX002 (ip), vehicle: saline with Tween-80 100 % of control | endpoint: mean survival time, dose: 100.0 mg/kg/injection, schedule: Q04DX002 (ip), vehicle: saline with Tween-80 96 % of control | endpoint: mean survival time, dose: 200.0 mg/kg/injection, schedule: Q04DX002 (ip), vehicle: saline with Tween-80 100 % of control

Cc1ccc(NC(=O)OCCOc2ccccc2Cl)cc1[N+](=O)[O-]
inactive: [9] 98 % of control | [10] 103 % of control | [11] 88 % of control and 103 % of control

CCN(CC)Cc1cc2[nH]c3c4ccc(Cl)cc4ncc3c2cc1OC
inactive: endpoint: median survival time, dose: 6.25 mg/kg/injection, schedule: Q01DX009 (ip), vehicle: saline with Tween-80 102 % of control | endpoint: median survival time, dose: 12.5 mg/kg/injection, schedule: Q01DX009 (ip), vehicle: saline with Tween-80 102 % of control | [24] 103 % of control | [25] 111 % of control

FC(F)(F)/C([S-])=C(/[S-])C(F)(F)F.[Fe].[c-]1[c-][c-][cH-][c-]1
inactive: endpoint: mean survival time, dose: 75.0 mg/kg/injection, schedule: Q01DX001 (ip), vehicle: other 105 % of control | endpoint: mean survival time, dose: 150.0 mg/kg/injection, schedule: Q01DX001 (ip), vehicle: other 100 % of control

NC(C(=O)[O-])C(=O)[O-].NC1CCCCC1N.[Pt+4]
inactive: endpoint: median survival time, dose: 1.0 mg/kg/injection, schedule: Q04DX003 (ip), vehicle: water 109 % of control | endpoint: median survival time, dose: 2.0 mg/kg/injection, schedule: Q04DX003 (ip), vehicle: water 124 % of control

CC1CC[N-]CC1.CC1CC[N-]CC1.CS(C)=O.[Cl][Rh]([Cl])[Cl]
inactive: [21] 96 % of control

Cc1ccc(CCF)cc1
inactive: [18] 107 % of control | [19] 109 % of control

OCC(O)c1ccccc1 (stereo unspecified)
inactive: [6] 97 % of control | [7] 101 % of control | [8] 104 % of control

CO[C@@H](C=O)O[C@@H](C=O)CO
inactive: endpoint: mean survival time, dose: 70.0 mg/kg/injection, schedule: Q01DX001 (ip), vehicle: saline 121 % of control | endpoint: mean survival time, dose: 140.0 mg/kg/injection, schedule: Q01DX001 (ip), vehicle: saline 121 % of control

N#CC1C(=O)NC(O)(c2ccccc2)C1c1ccccc1 (stereo unspecified)
inactive: endpoint: mean survival time, dose: 25.0 mg/kg/injection, schedule: Q04DX003 (ip), vehicle: saline with Tween-80 105 % of control | endpoint: mean survival time, dose: 50.0 mg/kg/injection, schedule: Q04DX003 (ip), vehicle: saline with Tween-80 105 % of control | [21] 97 % of control and 105 % of control

O=C(Nn1c(=O)c(=O)oc2ccccc21)C(F)(F)F
inactive: [21] 96 % of control | [22] 94 % of control

Nc1ccc(NC(=O)COc2cccc(Cl)c2)cc1
inactive: [18] 90 % of control | [19] 90 % of control | [20] 95 % of control

C[C@]12CC[C@H](O)CC1=CC[C@@H]1[C@@H]2CC[C@]2(C)C(=O)CC[C@@H]12
inactive: [13] 98 % of control | [14] 102 % of control | endpoint: mean survival time, dose: 200.0 mg/kg/injection, schedule: Q01DX009 (ip), vehicle: Klucel (hydroxypropylcellulose) (HPC) 94 % of control | [24] 101 % of control | [25] 101 % of control | endpoint: median survival time, dose: 100.0 mg/kg/injection, schedule: Q01DX009 (ip), vehicle: saline with Tween-80 92 % of control | endpoint: median survival time, dose: 200.0 mg/kg/injection, schedule: Q01DX009 (ip), vehicle: saline with Tween-80 92 % of control | endpoint: median survival time, dose: 400.0 mg/kg/injection, schedule: Q01DX009 (ip), vehicle: saline with Tween-80 91 % of control

C=CCc1ccc(OC(=O)Nc2ccc(C)c([N+](=O)[O-])c2)c(OC)c1
inactive: [9] 98 % of control | [10] 103 % of control | [11] 98 % of control | [5] 88 % of control

CCOC(=O)CC1=Nc2c(Cl)ncnc2NN1
inactive: endpoint: mean survival time, dose: 100.0 mg/kg/injection, schedule: Q01DX001 (ip), vehicle: carboxymethylcellulose (CMC) 95 % of control | endpoint: mean survival time, dose: 200.0 mg/kg/injection, schedule: Q01DX001 (ip), vehicle: carboxymethylcellulose (CMC) 91 % of control

COc1ccc2c(c1OC)C(=O)OC2c1cc(Br)c(O)c(C2OC(=O)c3c2ccc(OC)c3OC)c1 (stereo unspecified)
inactive: [4] 101 % of control | [21] 92 % of control | [5] 101 % of control | [22] 93 % of control | [12] 98 % of control | [23] 90 % of control
